target: T1, JAK1 kinase (Homo sapiens, UniProt P23458); experiment: In vitro inhibitory activity on JAK1 kinase (ADP-Glo Kinase Assay); type: biochemical; conditions: JAK1 kinase 4 nM, 1 mM ATP
T1 construct: purchased Invitrogen PV4744
Method in brief: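 JAK1 (4 nM final) preincubated with compound 15 min at 25° C., then substrate mix (1 mM ATP, IRS1 0.05 mg/ml) added for 60 min at 25° C. ADP-Glo luminescence read-out; top concentration 10 μM, 3-fold, 10 points, duplicates; IC50 reported in ranged classes.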

T1 sequence (P23458 866-1154 limits assumed): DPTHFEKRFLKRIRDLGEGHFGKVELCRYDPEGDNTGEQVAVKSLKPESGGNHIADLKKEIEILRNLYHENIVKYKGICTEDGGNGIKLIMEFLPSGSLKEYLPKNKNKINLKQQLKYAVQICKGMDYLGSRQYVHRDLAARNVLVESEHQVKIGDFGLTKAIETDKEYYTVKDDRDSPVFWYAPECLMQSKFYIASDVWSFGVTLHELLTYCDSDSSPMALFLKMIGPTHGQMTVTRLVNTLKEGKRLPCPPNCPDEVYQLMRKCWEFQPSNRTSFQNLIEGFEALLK

| SMILES | IC50 [nM] |
| --- | --- |
| Cn1cc(Nc2nccc(C3=CC4CCC(C3)N4C(=O)NCC#N)n2)cn1 (centres unmarked) [Compound 2, N-(cyanomethyl)-3-(2-((1-methyl-1H-pyrazol-4-yl)amino)pyrimidin-4-yl)-8-azabicyclo[3.2.1]oct-2-ene-8-carboxamide] | < 100 |
| Cn1cc(Nc2ncc(F)c(C3=CC4CCC(C3)N4C(=O)NCC(F)(F)F)n2)cn1 (centres unmarked) [Compound 12, 3-(5-fluoro-2-((1-methyl-1H-pyrazol-4-yl)amino)pyrimidin-4-yl)-N-(2,2,2-trifluoroethyl)-8-azabicyclo[3.2.1]oct-2-ene-8-carboxamide] | < 100 |
| Cn1cc(Nc2nccc(C3=CC4CCC(C3)N4C(=O)COCC(F)(F)F)n2)cn1 (centres unmarked) [Compound 69, 1-(3-(2-((1-methyl-1H-pyrazol-4-yl)amino)pyrimidin-4-yl)-8-azabicyclo[3.2.1]oct-2-en-8-yl)-2-(2,2,2-trifluoroethoxy)-1-one] | 300 to 1000 |
| Cn1cc(Nc2nccc(C3=CC4CCC(C3)N4C(=O)C3CC(CO)C3)n2)cn1 (centres unmarked) [Compound 81, (3-(hydroxymethyl)cyclobutyl)(3-(2-((1-methyl-1H-pyrazol-4-yl)amino)pyrimidin-4-yl)-8-azabicyclo[3.2.1]oct-2-en-8-yl)methanone] | > 1000 |
| COC1CC(C(=O)N2C3C=C(c4ccnc(Nc5cnn(C)c5)n4)CC2CC3)C1 (centres unmarked) [Compound 80, (3-methoxycyclobutyl)(3-(2-((1-methyl-1H-pyrazol-4-yl)amino)pyrimidin-4-yl)-8-azabicyclo[3.2.1]oct-2-en-8-yl)methanone] | > 1000 |
| Cc1cnc(Nc2cnn(C)c2)nc1C1=CC2CCC(C1)N2C(=O)NCC(F)(F)F (centres unmarked) [Compound 19, 3-(5-methyl-2-((1-methyl-1H-pyrazol-4-yl)amino)pyrimidin-4-yl)-N-(2,2,2-trifluoroethyl)-8-azabicyclo[3.2.1]oct-2-ene-8-carboxamide] | < 100 |
| Cn1cc(Nc2ncc(F)c(C3=CC4CCC(C3)N4C(=O)[C@@H]3CC3(F)F)n2)cn1 (stereo partly drawn) [Compound 21, ((S)-2,2-difluorocyclopropyl)(3-(5-fluoro-2-((1-methyl-1H-pyrazol-4-yl)amino)pyrimidin-4-yl)-8-azabicyclo[3.2.1]oct-2-en-8-yl)methanone] | < 100 |
| Cn1cc(Nc2nccc(C3=CC4CCC(C3)N4C(=O)C3CC3C(F)(F)F)n2)cn1 (centres unmarked) [Compound 49, (3-(2-((1-methyl-1H-pyrazol-4-yl)amino)pyrimidin-4-yl)-8-azabicyclo[3.2.1]oct-2-en-8-yl)(2-(trifluoromethyl)cyclopropyl)methanone] | < 100 |
| Cn1cc(Nc2ncc(F)c(C3=C[C@H]4CC[C@@H](C3)N4C(=O)NCC(F)(F)F)n2)cn1 [Compound 12-b, (1R,5S)-3-(5-fluoro-2-((1-methyl-1H-pyrazol-4-yl)amino)pyrimidin-4-yl)-N-(2,2,2-trifluoroethyl)-8-azabicyclo[3.2.1]oct-2-ene-8-carboxamide] | < 100 |
| Cn1cc(Nc2ncc(F)c(C3=CC4CCC(C3)N4C(=O)NCC#N)n2)cn1 (centres unmarked) [Compound 11, N-(cyanomethyl)-3-(5-fluoro-2-((1-methyl-1H-pyrazol-4-yl)amino)pyrimidin-4-yl)-8-azabicyclo[3.2.1]oct-2-ene-8-carboxamide] | < 100 |
| CC(C)n1cc(Nc2nccc(C3=CC4CCC(C3)N4C(=O)[C@@H]3CC3(F)F)n2)cn1 (stereo partly drawn) [Compound 46, ((S)-2,2-Difluorocyclopropyl)(3-(2-((1-isopropyl-1H-pyrazol-4-yl)amino)pyrimidin-4-yl)-8-azabicyclo[3.2.1]oct-2-en-8-yl)methanone] | 100 to 300 |
| Cn1cc(Nc2nccc(C3=C[C@H]4CC[C@@H](C3)N4C(=O)NCC(F)(F)F)n2)cn1 [Compound 3-b, (1R,5S)-3-(2-((1-methyl-1H-pyrazol-4-yl)amino)pyrimidin-4-yl)-N-(2,2,2-trifluoroethyl)-8-azabicyclo[3.2.1]oct-2-ene-8-carboxamide] | < 100 |
| Cn1cc(Nc2nccc(C3=CC4CCC(C3)N4C(=O)C3(C)CC3(F)F)n2)cn1 (centres unmarked) [Compound 48, (2,2-difluoro-1-methylcyclopropyl)(3-(2-((1-methyl-1H-pyrazol-4-yl)amino)pyrimidin-4-yl)-8-azabicyclo[3.2.1]oct-2-en-8-yl)methanone] | > 1000 |
| CC(C)(O)Cn1cc(Nc2nccc(C3=CC4CCC(C3)N4C(=O)[C@@H]3CC3(F)F)n2)cn1 (stereo partly drawn) [Compound 41, ((S)-2,2-Difluorocyclopropyl)(3-(2-((1-(2-hydroxy-2-methylpropyl)-1H-pyrazol-4-yl)amino)pyrimidin-4-yl)-8-azabicyclo[3.2.1]oct-2-en-8-yl)methanone] | 100 to 300 |
| Cn1cc(Nc2nccc(C3=CC4CCC(C3)N4C(=O)C3CCOC3)n2)cn1 (centres unmarked) [Compound 76, (3-(2-((1-methyl-1H-pyrazol-4-yl)amino)pyrimidin-4-yl)-8-azabicyclo[3.2.1]oct-2-en-8-yl)(tetrahydrofuran-3-yl)methanone] | 100 to 300 |
| Cn1cc(Nc2nccc(C3=CC4CCC(C3)N4C(=O)C(C)(C)C(F)(F)F)n2)cn1 (centres unmarked) [Compound 68, 3,3,3-trifluoro-2,2-dimethyl-1-(3-(2-((1-methyl-1H-pyrazol-4-yl)amino)pyrimidin-4-yl)-8-azabicyclo[3.2.1]oct-2-en-8-yl)acetone] | 300 to 1000 |
| NC(=O)Cn1cc(Nc2nccc(C3=CC4CCC(C3)N4C(=O)[C@@H]3CC3(F)F)n2)cn1 (stereo partly drawn) [Compound 38, 2-(4-((4-(8-((S)-2,2-Difluorocyclopropane-1-formyl)-8-azabicyclo[3.2.1]oct-2-en-3-yl)pyrimidin-2-yl)amino)-1H-pyrazol-1-yl)acetamide] | < 100 |
| Cn1cc(Nc2nccc(C3=CC4CCC(C3)N4C(=O)c3ccc(C(F)(F)F)cn3)n2)cn1 (centres unmarked) [Compound 17, (3-(2-((1-methyl-1H-pyrazol-4-yl)amino)pyrimidin-4-yl)-8-azabicyclo[3.2.1]oct-2-en-8-yl)(5-(trifluoromethyl)pyridin-2-yl)methanone] | > 1000 |
| Cn1cc(Nc2nccc(C3=CC4CCC(C3)N4C(=O)C3(C#N)CC3)n2)cn1 (centres unmarked) [Compound 63, 1-(3-(2-((1-methyl-1H-pyrazol-4-yl)amino)pyrimidin-4-yl)-8-azabicyclo[3.2.1]oct-2-ene-8-formyl)cyclopropane-1-carbonitrile] | 300 to 1000 |
| Cn1cc(Nc2nccc(C3=CC4CCC(C3)N4C(=O)C34CC(C#N)(C3)C4)n2)cn1 (centres unmarked) [Compound 73, 3-(3-(2-((1-methyl-1H-pyrazol-4-yl)amino)pyrimidin-4-yl)-8-azabicyclo[3.2.1]oct-2-ene-8-formyl)bicyclo[1.1.1]pentane-1-carbonitrile] | > 1000 |

target: T2, TYK2 kinase (Homo sapiens, UniProt P29597); experiment: In vitro inhibitory activity on Tyk2 kinase (ADP-Glo Kinase Assay); type: biochemical; conditions: TYK2 kinase 4 nM, 1 mM ATP
T2 sequence (P29597 897-1187 limits assumed): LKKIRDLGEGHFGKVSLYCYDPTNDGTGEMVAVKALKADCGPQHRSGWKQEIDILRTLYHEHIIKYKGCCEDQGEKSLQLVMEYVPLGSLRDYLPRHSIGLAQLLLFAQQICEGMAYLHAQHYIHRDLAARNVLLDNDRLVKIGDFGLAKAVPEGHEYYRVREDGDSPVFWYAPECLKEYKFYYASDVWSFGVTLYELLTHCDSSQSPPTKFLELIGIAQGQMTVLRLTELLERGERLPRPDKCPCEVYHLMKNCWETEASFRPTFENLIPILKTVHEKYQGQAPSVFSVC
Method: Test Example 2: Determination of In Vitro Inhibitory Activity of the Compounds of the Present Invention on Tyk2 Kinase Experimental materials: TYK2 (Invitrogen, PV4790), ATP (Promega, V915B), ADP-Glo Kinase Assay (Promega, V9101), IRS1 (Signalchem, 140-58-1000). Sample preparation: The compounds of the present invention and the control product were dissolved in DMSO solvent respectively to formulate into 10 mM initial liquid. The maximum concentration of the compound was 10 μM, 3-fold dilution, 10 concentration gradients, and duplicate wells for each concentration gradient. Experimental process: 0.1 μL of the compound to be tested was transferred into a 384 reaction plate (PE, 6007290) via Echo and centrifuged at 1000 rpm/min for 1 min. 5 μL TYK2 kinase (final concentration of 4 nM) was transferred into the 384 reaction plate, which was then centrifuged at 1000 rpm/min for 1 min, and incubated at 25° C. for 15 min. 5 μL substrate mixture (1 mM ATP, IRS1 0.05 mg/ml, kinase buffer solution) was transferred into the 384 reaction plate, which was then centrifuged at 1000 rpm/min for 1 min, and incubated at 25° C. for 60 min. 10 μL ADP-Glo was transferred into the 384 reaction plate, which was then centrifuged at 1000 rpm/min for 1 min, and incubated at 25° C. for 40 min. 20 μL test solution was transferred into the 384 reaction plate, which was centrifuged at 1000 rpm/min for 1 min and incubated at 25° C. for 40 min. RLU (Relative luminescence unit) signal was read by using an Envision multifunctional plate reader. The signal intensity was used to characterize the degree of the kinase activity. […] IC50 value of 0-100 nM is shown as A, IC50 value of 100-300 nM is shown as B, IC50 value of 300-1000 nM is shown as C, and IC50 value which is greater than 1000 nM is shown as D. NT means not tested.

| SMILES | IC50 [nM] |
| --- | --- |
| Cn1cc(Nc2nccc(C3=CC4CCC(C3)N4C(=O)NCC#N)n2)cn1 (centres unmarked) [Compound 2, N-(cyanomethyl)-3-(2-((1-methyl-1H-pyrazol-4-yl)amino)pyrimidin-4-yl)-8-azabicyclo[3.2.1]oct-2-ene-8-carboxamide] | < 100 |
| Cn1cc(Nc2ncc(F)c(C3=CC4CCC(C3)N4C(=O)NCC(F)(F)F)n2)cn1 (centres unmarked) [Compound 12, 3-(5-fluoro-2-((1-methyl-1H-pyrazol-4-yl)amino)pyrimidin-4-yl)-N-(2,2,2-trifluoroethyl)-8-azabicyclo[3.2.1]oct-2-ene-8-carboxamide] | < 100 |
| Cn1cc(Nc2ncc(F)c(C3=CC4CCC(C3)N4C(=O)NCC#N)n2)cn1 (centres unmarked) [Compound 11, N-(cyanomethyl)-3-(5-fluoro-2-((1-methyl-1H-pyrazol-4-yl)amino)pyrimidin-4-yl)-8-azabicyclo[3.2.1]oct-2-ene-8-carboxamide] | < 100 |

From US20220348572A1, “BRIDGED HETEROCYCLYL-SUBSTITUTED PYRIMIDINE COMPOUND, PREPARATION METHOD THEREFOR, AND PHARMACEUTICAL USE THEREOF” (The National Institutes of Pharmaceutical R&D Co., Ltd., priority 2019, published 2022)
